From publication PMC4086519, “Anti-Trichophyton Activity of Protocatechuates and Their Synergism with Fluconazole” (Evidence-based Complementary and Alternative Medicine : eCAM, 2014)
Values after ≈ are worked out from the molar mass of the structure shown. Read-outs that look alike come from different tables or passages of the source.

Tests used:
Assay type in all cases: cell-based
Trichophyton rubrum [1] = assay: Broth microdilution MIC (CLSI M38-A2, modified)
Protocol: (§1) To evaluate its antifungal activity, […] of dermatophytes were tested: two clinical strains of Trichophyton rubrum (Tr1 and Tr2), Trichophyton rubrum ATCC MYA 3108, two clinical strains of Trichophyton mentagrophytes (Tm1 and Tm2), and Trichophyton mentagrophytes ATCC 40131 (Tm3). The microorganisms were obtained from the collection of the Clinical Mycology Laboratory of the Department of Clinical Analyses at the School of Pharmaceutical Sciences of Universidade Estadual Paulista (UNESP). The strains were cultivated on Sabouraud dextrose agar (Difco, BD Biosciences) and incubated at 28°C for 7-15 days. For all experiments, the strains were cultivated on Potato Dextrose Agar (Difco, BD Biosciences) and incubated at 28°C as described above or until sporulation. The dilution of the synthetic compounds was performed with DMSO (Synth, Diadema, Sao Paulo, Brazil) as described by Scorzoni et al.. […] The antifungal drugs were diluted according to the CLSI […]-A2 document. Stock solutions of Fluconazole (Sigma-Aldrich, St. Louis, MO, USA) were prepared, considering its power. Serial twofold dilutions were prepared according to the recommendations of Zhang and collaborators, with some modifications. The antifungal activity tests were performed using the broth microdilution method as described in […]-A2, a document produced by the Clinical and Laboratory Standards Institute (CLSI, 2008), with modifications. The medium used was RPMI 1640 with L-glutamine (Sigma-Aldrich, St. Louis, MO, USA) buffered to pH 7.0 with 0.165 M morpholinepropanesulfonic acid (MOPS) (Sigma-Aldrich, St. Louis, MO, USA), supplemented with 2% glucose. […] The suspension of conidia was then transferred to small sterile test tubes where they remained for 40 minutes to separate the microconidia, which were lighter and therefore present in the supernatant. […] These suspensions were diluted in RPMI 1640 (Sigma-Aldrich, St. […] Positive (100 μL of RPMI medium with 100 μL of inoculum) and negative (200 μL of RPMI) controls were included in all experiments. The plates were incubated with agitation at 35°C for 7 days. The MIC reading was performed by spectrophotometry at 490 nm.

[2] = system: Trichophyton mentagrophytes; assay: Broth microdilution MIC (CLSI M38-A2, modified)
Protocol: as §1

Trichophyton rubrum [3] = assay: Minimum fungicide concentration (MFC)
Protocol: (§2) A qualitative analysis of the fungal viability was performed by transferring a portion of the wells to a plate with Sabouraud (Difco, BD Biosciences) medium and incubating it at 35°C for the time determined for each fungal agent. […] A visual reading was performed to confirm the death or growth inhibition provided by fluconazole and the sixteen semisynthetic substances derived from protocatechuic acid.

[4] = system: Trichophyton mentagrophytes; assay: Minimum fungicide concentration (MFC)
Protocol: as §2

Trichophyton rubrum [5] = assay: Checkerboard synergism assay with fluconazole; settings: Trichophyton rubrum; Tr1; checkerboard, 168 hours; read-out: MIC, substances alone
Protocol: (§3) The drug activity was assessed using a checkerboard method derived from a standardised procedure established by the National Committee for Clinical Laboratory Standards ([…]-A2). Briefly, the test was performed on the same medium used for susceptibility testing. Volumes of 50 μL of each drug in a concentration four times the final concentration were dispensed in 96-well plates ([…], Switzerland). To each well, 100 μL of the fungal suspension was added to produce a final concentration of 5.0 × 10^3 CFU/mL. As a negative control, we used 200 μL of RPMI, while as a positive control, we used 100 μL of RPMI medium with 100 μL of inoculum. The plates were incubated at 35°C, and the reading was completed after 168 hours. We conducted visual and spectrophotometric readings at 490 nm. To determine the effect of combinatorial fractions, we calculated the fractional inhibitory concentration (FIC). The FIC was calculated by taking the MIC of the substance in combination/MIC of the substance alone. The sum of the fractional inhibitory concentration (FIC) of each substance consists of the fractional inhibitory concentration index: (the MIC of drug A in combination/the MIC of drug A alone) + (the MIC of drug B in combination/the MIC of drug B alone).

[6] = system: Trichophyton mentagrophytes; assay: Checkerboard synergism assay with fluconazole; settings: Trichophyton mentagrophytes, checkerboard, 168 hours, read-out: MIC, substances alone
Protocol: as §3

[7] = Tr2, T. rubrum clinical isolate, 35°C, 7 days
[8] = Tr3, T. rubrum ATCC MYA 3108, 35°C, 7 days
[9] = Tm2, clinical isolate, 35°C, 7 days
[10] = Tr2, T. rubrum clinical isolate
[11] = Tr1, T. rubrum clinical isolate, 35°C, 7 days
[12] = Tm1, clinical isolate, 35°C, 7 days
[13] = Tm3, T. mentagrophytes ATCC 40131, 35°C, 7 days
[14] = Tr1, T. rubrum clinical isolate
[15] = Tm3, T. mentagrophytes ATCC 40131

Structure (SMILES) | MIC (Trichophyton rubrum [1]; [7]) [µg/mL] | MIC (Trichophyton rubrum [1]; [8]) [µg/mL] | MIC [2, 9] [µg/mL] | MFC (Trichophyton rubrum [3]; [10]) [µg/mL] | MFC (Trichophyton rubrum [3]; Tr3, T. rubrum ATCC MYA 3108) [µg/mL] | MFC ([4]; Tm2, clinical isolate) [µg/mL] | MIC (Trichophyton rubrum [1]; [11]) [µg/mL] | MIC [2, 12] [µg/mL] | MIC [2, 13] [µg/mL] | MFC (Trichophyton rubrum [3]; [14]) [µg/mL] | MFC ([4]; Tm1, clinical isolate) [µg/mL] | MFC [4, 15] [µg/mL] | further results
CC(=O)Oc1ccc(C(=O)O)cc1OC(C)=O [Acid 3.4 diacetoxybenzoic, 3,4-diacetoxybenzoic acid] | – | – | – | – | – | – | – | – | – | – | – | – | MIC (Trichophyton rubrum [1]; Trichophyton rubrum, 168 h, Tr1, T. rubrum clinical isolate, 35°C, 7 days, read-out: MIC): 250 µg/mL (≈ 1050 µM); MIC (Trichophyton rubrum [1]; Trichophyton rubrum, 168 h, Tr2, T. rubrum clinical isolate, 35°C, 7 days, read-out: MIC): > 250 µg/mL; MIC (Trichophyton rubrum [1]; Trichophyton rubrum, 168 h, Tr3, T. rubrum ATCC MYA 3108, 35°C, 7 days, read-out: MIC): > 250 µg/mL; MIC ([2]; Trichophyton mentagrophytes, 168 h, Tm1, clinical isolate, 35°C, 7 days, read-out: MIC): 250 µg/mL (≈ 1050 µM); MIC ([2]; Trichophyton mentagrophytes, 168 h, Tm2, clinical isolate, 35°C, 7 days, read-out: MIC): > 250 µg/mL; MIC ([2]; Trichophyton mentagrophytes, ATCC40131, 168 h, Tm3, T. mentagrophytes ATCC 40131, 35°C, 7 days, read-out: MIC): 250 µg/mL (≈ 1050 µM); MFC (Trichophyton rubrum [3]; Trichophyton rubrum, Tr1, T. rubrum clinical isolate, read-out: MFC): 250 µg/mL (≈ 1050 µM); MFC (Trichophyton rubrum [3]; Trichophyton rubrum, Tr2, T. rubrum clinical isolate, read-out: MFC): > 250 µg/mL; MFC (Trichophyton rubrum [3]; Trichophyton rubrum, Tr3, T. rubrum ATCC MYA 3108, read-out: MFC): > 250 µg/mL; MFC ([4]; Trichophyton mentagrophytes, ATCC40131, Tm3, T. mentagrophytes ATCC 40131, read-out: MFC): 250 µg/mL (≈ 1050 µM); MFC ([4]; Trichophyton mentagrophytes, Tm1, clinical isolate, read-out: MFC): 250 µg/mL (≈ 1050 µM); MFC ([4]; Trichophyton mentagrophytes, Tm2, clinical isolate, read-out: MFC): > 250 µg/mL
O=C(O)c1ccc(O)c(O)c1 [Acid protocatechuic, Protocatechuic acid (3,4-dihydroxybenzoic)] | 250 (≈ 1620 µM) | 250 (≈ 1620 µM) | 250 (≈ 1620 µM) | 250 (≈ 1620 µM) | 250 (≈ 1620 µM) | > 250 | – | – | – | – | – | – | MIC (Trichophyton rubrum [1]; Trichophyton rubrum, 168 h): 250 µg/mL (≈ 1620 µM); MIC ([2]; Trichophyton mentagrophytes, 168 h): 250 µg/mL (≈ 1620 µM); MIC ([2]; Trichophyton mentagrophytes, ATCC40131, 168 h): 125 µg/mL (≈ 811 µM); MFC (Trichophyton rubrum [3]; Trichophyton rubrum): 250 µg/mL (≈ 1620 µM); MFC ([4]; Trichophyton mentagrophytes): > 250 µg/mL; MFC ([4]; Trichophyton mentagrophytes, ATCC40131): 125 µg/mL (≈ 811 µM)
OC(Cn1cncn1)(Cn1cncn1)c1ccc(F)cc1F [FLU, Fluconazole] | – | – | – | – | – | – | – | – | – | – | – | – | MIC (Trichophyton rubrum [5]): 2 µg/mL; MIC ([6]; ATCC40131, Tm3 (ATCC 40131)): 0.5 µg/mL; MIC ([6]; Tm1): 1 µg/mL
CCCCOC(=O)c1ccc(O)c(O)c1 [Protocatechuate butyl] | 7.8 (≈ 37.1 µM) | 7.8 (≈ 37.1 µM) | 15.6 (≈ 74.2 µM) | 7.8 (≈ 37.1 µM) | 7.8 (≈ 37.1 µM) | 15.6 (≈ 74.2 µM) | 15.6 (≈ 74.2 µM) | 7.80 (≈ 37.1 µM) | 15.6 (≈ 74.2 µM) | 15.6 (≈ 74.2 µM) | 62.5 (≈ 297 µM) | 15.6 (≈ 74.2 µM) | –
CCCCCCCCCCOC(=O)c1ccc(O)c(O)c1 [Protocatechuate decyl] | 3.9 (≈ 13.2 µM) | 3.90 (≈ 13.2 µM) | 3.9 (≈ 13.2 µM) | 3.9 (≈ 13.2 µM) | 7.8 (≈ 26.5 µM) | 3.9 (≈ 13.2 µM) | 3.9 (≈ 13.2 µM) | 7.8 (≈ 26.5 µM) | 3.90 (≈ 13.2 µM) | 3.9 (≈ 13.2 µM) | 7.8 (≈ 26.5 µM) | 15.6 (≈ 53 µM) | –
CCCCCCCCCCCCOC(=O)c1ccc(O)c(O)c1 [Protocatechuate dodecyl] | 125 (≈ 388 µM) | > 250 | 62.5 (≈ 194 µM) | 125 (≈ 388 µM) | 250 (≈ 775 µM) | 62.5 (≈ 194 µM) | > 250 | 250 (≈ 775 µM) | 31.2 (≈ 96.8 µM) | > 250 | 250 (≈ 775 µM) | 62.5 (≈ 194 µM) | –
